The values that follow come from publication PMC6479402, “Anti-Herpetic, Anti-Dengue and Antineoplastic Activities of Simple and Heterocycle-Fused Derivatives of Terpenyl-1,4-Naphthoquinone and 1,4-Anthraquinone” (Molecules, 2019).

For assay [1], the system named is Human Herpesvirus type 1 (HHV-1). Briefly: End-point titration technique (EPTT), anti-herpetic screening on infected Vero cells. Type of assay: cell-based. Particulars: for Rf (reduction factor of the viral titer), HHV-1: 1 TCID50, 48 h; for minimal effective concentration: Human alphaherpesvirus 1, 1 TCID50, 48 h, read-out: 1 TCID50: non-toxic concentration that showed viral reduction factor, HHV-1. The procedure: (§1) The in vitro antiviral evaluation of the 27 substances against Human Herpesvirus type 1 (HHV-1) and 2 (HHV-2) was made on infected Vero cells, using the end-point titration technique (EPTT).
(§2) The antiviral activity of molecules against 1 and 10 Cell Culture Infectious Dose 50% (10TCID50) of HHV-1 and HHV-2, respectively, was determined using end-point titration technique (EPTT). Vero cells grown in 96-well plates at a density of 2.0 × 10^4 cells/well were incubated at 37 °C in 5% CO2 atmosphere until constitute 80% of cell monolayer. Then, viral suspensions of HHV-1 or HHV-2 with concentrations of 6.25 µg/mL to 50 µg/mL of compounds were performed in DMEM supplemented with 2% FBS containing 1% and 0.5% carboxymethylcellulose (CMC) for HHV-1 and HHV-2, respectively. Mixture was incubated during 15 minutes at room temperature and was added to the cell monolayer. After 48 h of incubation at 37 °C (5% CO2), the cytopathic effect was examined, the microplates were fixed with 3.5% formaldehyde and stained with 0.2% crystal violet. Two independent experiments by quadruplicate for each viral serotype and each were carried out. Positive controls, such as dextran sulfate (DS) and acyclovir (A) for early stages and late stages of infection, respectively, were included.

The test system of assay [2] is Human Herpesvirus type 2 (HHV-2). The description is as above. The format is cell-based, Human Herpesvirus 2. The note with it: for Rf (reduction factor of the viral titer), HHV-2: 10 TCID50, 48 h; for minimal effective concentration: Human alphaherpesvirus 2, 10 TCID50, 48 h, tested 6.25-50 µg/mL, read-out: 10 TCID50: non-toxic concentration that showed viral reduction factor, HHV-2. The procedure: as §1, §2

The subject of the next assay is HHV-1. Briefly: Plaque reduction assay, simultaneous and post-infection treatment, Vero cells. Type of assay: cell-based, Human Herpesvirus 1. The procedure:
(§3) To define the stage of the viral replicative cycle where NQ 4 exerts its action, simultaneous and post-infection treatments against HHV-1 and HHV-2 were performed. […] First, we determined the inhibitory concentration 50% (IC50) for the compound and drug positive controls on infected cells and their effects on non-tumoral Vero cells, to define the concentration of evaluation and to calculate the antiviral selectivity index (SI). Then, the concentration of NQ 4 that reduced the number of viral plaques by 50% (EC50) was determined from the dose-response curves.
(§4) The potential antiviral mechanism of NQ 4 was evaluated by the plaque reduction assay as previously described by us. Vero cell monolayers grown in 24-well plates were infected with 100 PFU/well of each virus. For simultaneous treatment, the compound and the virus were added simultaneously to the cell monolayers and incubated for 1 h at 37 °C (5% CO2). Then, cells were washed with phosphate buffered saline (PBS, pH = 7.0) and CMC at 1% and 0.75% was added for HHV-1 and HHV-2, respectively. In post-infection treatment, virus was added to cell monolayer and incubated for 1 h at 37 °C (5% CO2). After incubation, washing was performed with PBS and molecule previously prepared in CMC 1% and 0.75% for HHV-1 and HHV-2 respectively, was added. In both treatments, NQ 4 was prepared at concentrations from 0.4 µg/mL to 3.1 µg/mL and the cell monolayers allowed to incubate for 72 h. Subsequently, cells were fixed and stained with a solution of 3.5% formaldehyde with 0.2% crystal violet, and the viral plaques were counted. Dextran sulfate (DS) was included as positive control in simultaneous assay and acyclovir (A) was the positive control in after infection treatment.

Another assay concerns Vero. Briefly: MTT cytotoxicity assay, non-tumor cells. The format is cell-based, Cercopithecus aethiops. Particulars: for IC50: Chlorocebus sabaeus. The procedure: The in vitro cytotoxicity evaluation of quinones was performed using the 3-(4,5 dimethylthiazol-2-yl)-2,5-diphenyltetrazolium bromide (MTT, Sigma, Cream Ridge, NJ, USA) assay as described by Betancur-Galvis et al. 2002 [22]. Briefly, Vero and HeLa cell lines were seeded at 2.0 × 10^3 cells per well of 96-well plates in DMEM supplemented with 10% of inactivated FBS, and were incubated for 24 h at 37 °C, 5% CO2. Then, each diluted molecule was added to the cells and incubated for further 48 h at 37 °C, 5% CO2. Jurkat cell line at 3 × 10^3 cells per well in a 96-well round-bottomed plate and diluted substances in RPMI-1640 medium (Sigma) supplemented with 10% FBS were plated simultaneously. After 48 h of treatment at 37 °C, 5% CO2, the media was carefully removed and 28 µL of MTT solution (4 mg/mL) was added to each well, and the plates were incubated for 2 h at 37 °C, 5% CO2. The DMSO was then added to dissolve the formed formazan crystals and absorbance was determined spectrophotometrically at 570 nm.
The minimal dilution of compound that caused 50% inhibition of the cells (IC50) was calculated by linear regression analysis of the dose-response curves generated from the absorbance data with the statistical GraphPad Prisma 5.0. IC50 values were expressed as the mean ± standard deviation (M ± SD) of two independent experiments done in quadruplicate.

The subject of the next assay is HHV-2. Briefly: Plaque reduction assay, simultaneous and post-infection treatment, Vero cells. The format is cell-based, Human Herpesvirus 2. The procedure: as §3, §4
The test system of another assay is Jurkat. Briefly: MTT cytotoxicity assay. Type of assay: cell-based. Particulars: Homo sapiens, Jurkat ATCC TIB-152, 48 h, read-out: IC50 ± SD, Jurkat. The procedure: (§5) Then, each diluted molecule was added to the cells and incubated for further 48 h at 37 °C, 5% CO2. […] The DMSO was then added to dissolve the formed formazan crystals and absorbance was determined spectrophotometrically at 570 nm. […] IC50 values were expressed as the mean ± standard deviation (M ± SD) of two independent experiments done in quadruplicate.
For orientation: Tetrazolium assays rely on reduction of a dye to a coloured formazan, in cell work by metabolically active cells.

Another assay has as its system HeLa. Briefly: MTT cytotoxicity assay. The format is cell-based. Particulars: Homo sapiens, HeLa ATCC CRL-1958, 48 h, read-out: IC50 ± SD, HeLa. The procedure: as §5
In assay [3] the test system is DENV-2. Also on record: method as in PMID 20837762. The note with it: low concentrations; cited from earlier work.
The subject of assay [4] is DENV-2. Briefly: Plaque reduction assay, simultaneous and post-infection treatment, BHK-21 cells. The format is cell-based, Dengue virus type 2. The note with it: post-infective stages, ribavirin 3.7 µg/mL. The procedure: as §3
Against DENV, the effect of NQ 4 either simultaneously or post-infection was also evaluated by the plaque reduction assay as previously described. Concentrations employed for this assay were from 0.4 µg/mL to 1.6 µg/mL. In this test, BHK-21 cell monolayers grown in 24-well plates were infected with 100 PFU/well of DENV-2 and treatments were performed in the same way to describe for Herpesviruses. Moreover, the monolayers were incubated for 6 days, fixed and stained with a solution of 3.5% formaldehyde with 0.2% crystal violet, and the viral plaques were counted. Heparin (H) was included as a positive control in the simultaneous assay, and ribavirin (R) was the positive control in after infection treatment.
In general terms: In a plaque reduction assay, fewer plaques than in the control indicate reduced infectivity or spread.

[5] abbreviates: post-infective stages, acyclovir 1.5 µg/mL.
The mark [6] stands for this setting: non-tumoral Vero cells, data not shown, read-out: IC50 on Vero cells.
The mark [7] stands for this setting: Vero ATCC CCL-81, 48 h, MTT, read-out: IC50 ± SD, Vero.
Setting [8] is: simultaneous treatment, PFU, NQ 4 0.4–3.1 µg/mL, DS 5 µg/mL.
Where [9] appears, read: non-tumoral Vero cells, data not shown.

Read-outs that look alike come from different tables or passages of the source.

One may read the IC50 as the concentration at which inhibition is half-maximal. In the case of `Nc1nc2c(ncn2COCCO)c(=O)[nH]1` [A, Acyclovir, reference compound], the “Rf (reduction factor of the viral titer), HHV-1” value in assay [1] is given as 10^4. Further, the minimal effective concentration in assay [1] (tested 6.25-50 µg/mL) stood at 1.5 µg/mL. In [2], the “Rf (reduction factor of the viral titer), HHV-2” value was 10^4 and the minimal effective concentration came to 1.5 µg/mL. Besides, in the assay on HHV-1 (setting [5]), the “Antiviral activity in post-infection treatment, HHV-1” value was “active”. For the same molecule, in the assay on Vero (setting [6]), the 50% inhibitory concentration (IC50) is more than 400 µg/mL. For the same molecule, in the assay with HHV-2 (setting [5]), the “Antiviral activity in post-infection treatment, HHV-2” value is given as “active”.

For `CC1(C)CCCc2cc3c(cc21)C(=O)C(Cl)=C(Cl)C3=O` [AQ 12], the minimal effective concentration in assay [1] (tested 6.25-50 µg/mL) is more than 50 µg/mL; in assay [2] it was 25 µg/mL. In addition, the figures for the IC50 in the assay on Jurkat, in the assay on HeLa and with Vero (setting [7]) were 27.5 ± 0.6 µM, 38.5 ± 1.2 µM and 136 ± 4.4 µM, respectively. The “Rf (reduction factor of the viral titer), HHV-2” value in assay [2] is 1 × 10^2; in assay [2] (listed as 12), 10^2.

`COc1cccc2c1C(=O)c1c(O)c3c(c(O)c1C2=O)C[C@@](O)(C(=O)CO)C[C@@H]3O[C@H]1C[C@H](N)[C@H](O)[C@H](C)O1` [Doxorubicin, doxorubicin, reference compound]: the “Activity against DENV-2 at very early stages of the viral replication cycle” value in the assay with DENV-2 [3] is “active”. Also, the half-inhibitory concentration (IC50) in the assay with Jurkat came out at 0.1 ± 0.01 µM; in the assay with HeLa, 0.9 ± 0.1 µM; in the assay with Vero (setting [7]), 2 ± 0.1 µM.

For the molecule `Cc1ccc2[nH]c3c(c2c1)C(=O)c1ccc(CCCC(C)C)cc1C3=O` [HetQ 19], the IC50 in the assay on Jurkat is more than 72.4 µM; in the assay with HeLa, 77 ± 1.9 µM; in the assay on Vero (setting [7]), 212 ± 8.6 µM.

In the case of `Cc1cc(C)c2c3c(oc2c1)C(=O)c1cc(CCCC(C)C)ccc1C3=O` [HetQ 20], the IC50 with Jurkat was 42.2 ± 0.7 µM; in the assay with HeLa it was more than 69.3 µM; with Vero (setting [7]), 153 ± 4.5 µM.

`Cc1c2c(nc3ccccc13)C(=O)c1cc(CCCC(C)C)ccc1C2=O` [HetQ 21]: the IC50 with Jurkat and in the assay on HeLa was more than 69.9 µM throughout.

Consider `CCn1c(C)c(C(=O)OC)c2c1C(=O)c1cc3c(cc1C2=O)C(C)(C)CCC3` [HetQ 22], for which the IC50 in the assay with Jurkat came out at 71.7 ± 1.8 µM; in the assay on HeLa, 73 ± 1.6 µM; in the assay with Vero (setting [7]), 183 ± 15.9 µM.

For the molecule `CC(C)=CCCc1ccc2c(c1)C(=O)C=CC2=O` [NQ 1], the concentration for half-maximal inhibition (IC50) in the assay on Jurkat and with HeLa was more than 104 µM throughout.

Regarding `CC(C)CCCc1ccc2c(c1)C(=O)C(Br)=C(Br)C2=O` [NQ 5], the 50% inhibitory concentration (IC50) stood at 23.5 ± 1.7 µM with Jurkat, 19.7 ± 0.3 µM in the assay on HeLa and 15.7 ± 2.7 µM with Vero (setting [7]).

For the molecule `NC(=O)c1ncn([C@@H]2O[C@H](CO)[C@@H](O)[C@H]2O)n1` [ribavirin, reference compound], the half-maximal inhibitory concentration (IC50) in the assay with Vero (setting [6]) is more than 400 µg/mL. In addition, the “Antiviral activity in post-infection treatment, DENV-2” value with DENV-2 [4] is “active”.

In the case of “Dextran sulfate [DS, reference compound]”, in assay [1], the “Rf (reduction factor of the viral titer), HHV-1” value is 10^2. Also, in [1] (48 h, tested 6.25-50 µg/mL), the “1 TCID50: non-toxic concentration that showed viral reduction factor, HHV-1” value is listed as 0.5 µg/mL. The “Antiviral activity in simultaneous treatment, HHV-1” value with HHV-1 (setting [8]) is recorded as “active”. Further, the “IC50 on Vero cells” value in the assay with Vero (setting [9]) was more than 400 µg/mL. In addition, the “Antiviral activity in simultaneous treatment, HHV-2” value with HHV-2 (setting [8]) is on record as “active”.

Regarding heparin [reference compound], the “IC50 on Vero cells” value with Vero (setting [9]) is given as more than 400 µg/mL.
